Series [1] concerns hyperhomocysteinemic rats subjected to MCAO. In words: Cylinder test after MCAO. The class given is in vivo, male Wistar rats. The settings on record: HHcy rats, day 8 after MCAO, NVP-AAM077 1.2 mg/kg; untreated HHcy 24.24±2.37%. The protocol:
(§1) All rats were subjected to a battery of behavioral tests on day 7 (CatWalk), day 8 (cylinder and rotarod tests) and day 9 (adhesive test) after MCAO to evaluate normal gait, motor coordination and sensory motor functions. Habituation and training (3 days) was performed for one week before MCAO. The first two trainings days were before osmotic pump implantation and the third training day was after pump implantation. An experienced observer blinded to the experimental conditions evaluated all behavioral parameters.
Cylinder test: Control, hyperhomocysteinemic and NVP-AAM077 treated hyperhomocysteinemic rats were subjected to cylinder test to assess the post-stroke asymmetry in fore-limb use (Balkaya, 2013, J Cereb Blood Flow Metab 33:330-338). The rats were placed individually inside a transparent plexiglass cylinder (diameter 20 cm, height 45 cm). A vertical exploration movement with either the left or right forelimb along the wall was scored as contact of each paw with the glass wall for a total period of 2 minutes. Simultaneous contact by both paws was scored separately. Two trials (10 min rest between trials) were recorded and the percentage use of the affected fore limb was calculated (Liu et al., 2013, Behav Brain Res 257:166-177; Schaar et al., 2010, Exp Transl Stroke Med 2:13).

Series [2] has the same test system. In words: Accelerated Rotarod test after MCAO. Type of series: in vivo, male Wistar rats. The settings on record: HHcy rats, day 8 post MCAO, NVP-AAM077 1.2 mg/kg; untreated HHcy 96.99±4.11 sec. Here is the method:
as §1
Accelerated Rotarod test: Control, hyperhomocysteinemic and NVP-AAM077 treated hyperhomocysteinemic rats were subjected to the accelerated Rotarod test to evaluate impairment of motor co-ordination and balance following stroke (Bouet et al., 2007, Exp Neurol 203:555-567; Schaar et al., 2010, Exp Transl Stroke Med 2:13). Rats were placed on a rotating cylindrical rod accelerating from 0 to 50 rpm for a period of 180 seconds, and their latency to fall was recorded. The mean of four runs (10 min rest between trials) was used for statistical analysis. One hyperhomocysteinemic rat was excluded from the study as the rat jumped off the rod repeatedly.

In series [3] the test system is neuron cultures from WT and GluN2A-KO mice. Kind of series: Neuronal cell death by Hoechst DNA staining, WT and GluN2A-KO mouse neuron cultures. Type of series: cell-based. The following applies: for neuronal death: homocysteine 50 μM, 18 hours; for cell death: L-homocysteine 50 μM, 24 hours. The protocol:
Neurons were subjected to staining with Hoechst 33342 dye for 15 minutes, washed extensively with PBS, and analyzed using fluorescent microscopy to assess nuclear damage. Imaging was performed with a Zeiss Axiovert 200M fluorescence microscope with attached AxioCam CCD camera using 20× objective lens (Carl Zeiss, Thomwood, N.Y.). To quantitatively assess the percentage of pyknotic nuclei a total of 1000 cells were counted for each set of experiments. Mean±SEM (n=3) were used for statistical comparison using ANOVA (Bonferroni's multiple comparison test). Differences were considered significant when p<0.05.
[…] Glutamate treated cells were then maintained in their original medium for another 17 hours. For some experiments, neurons were treated with L-homocysteine or glutamate in the presence of NVP-AAM077 or PD98059. The neurons were then fixed and stained with Hoechst 33342 dye as previously described (Poddar and Paul, 2009, J Neurochem 110:1095-1106). Percentage of pyknotic nuclei was quantitatively assessed by fluorescent microscopy to determine the extent of neuronal death.

Series [4] can be described thus: Total plasma homocysteine after osmotic pump implantation, rats (HPLC). The class given is in vivo. The following applies: male, Wistar, rat, sc, 200 mM solution (2 ml osmotic pump, flow rate 10 μl/hr), subcutaneous osmotic pump with 200 mM L-homocysteine. The protocol: L-homocysteine (200 mM) was freshly prepared by alkali hydrolysis of L-homocysteine thiolactone hydrochloride followed by neutralization, and maintained in 0.02 mM of N-Tris(hydroxymethyl)methyl-2-aminoethanesulfonic acid buffer pH 7.4 as previously described (Poddar et al., 2001, Circulation, 103:2717-2723). Osmotic pumps (Alzet, 2ML1, flow rate 10 μl/hr; Durect Corp., Cupertino, Calif.) containing either 2 ml of freshly prepared 200 mM L-homocysteine (for hyperhomocysteinemia) or normal saline (for control) were surgically implanted subcutaneously on the back and posterior to the scapulae of male Wistar rats under anesthesia (2% isoflurane in medical grade oxygen). The incision was closed after implantation and the rats were allowed to recover in their cage. For both WT and GluN2A-KO mice, osmotic pumps (Alzet, 2001, flow rate 1 μl/hr; Durect Corp., Cupertino, Calif.) containing either 200 μl of freshly prepared 200 mM L-homocysteine (for hyperhomocysteinemia) or normal saline (for control) were implanted similarly.
Blood was obtained from rats (retro-orbital) and mice (cardiac puncture) under anesthesia with 2% isoflurane in medical grade oxygen, before installation of osmotic pumps (0 day) and at various time points after installation of osmotic pumps (rats: day 3, day 5, and day 7; mice: day 3 and day 5). Blood was collected in standardized VACUTAINER venous blood collection EDTA-tubes (ThermoFisher Scientific, Inc., Waltham, Mass.) and centrifuged at 3,500 rpm for 15 minutes. The plasma obtained was analyzed for total plasma homocysteine levels using high performance liquid chromatography with post-column fluorescence detection as previously described (Gilfix et al., 1997, Clin Chem 43:687-688; Jacobsen et al., 1994, Clin Chem 40:873-881; Miller et al., 2013, Am J Clin Nutr 97:827-834).

The test system of a further series is IκB. In words: IκB degradation in rat neuronal cultures (immunoblot). The class given is cell-based. The following applies: rat neurons, homocysteine 50 μM, four hours, alone. Here is the method: Rat and mice neuronal cultures were washed with PBS (pH 7.4), containing sodium pyrophosphate and sodium vanadate as phosphatase inhibitors, and harvested in SDS sample buffer (Laemmli, 1970, Nature 227:680-685). Equal protein from total cell lysates, estimated using BCA kit, was resolved by SDS-PAGE (7.5%) followed by western blotting on PVDF membranes. Immunoblot analysis was performed by first blocking with 5% non-fat dry milk for 1 h at room temperature followed by incubation with either COX2 immunoblot analysis (Poddar and Paul, 2009, J Neurochem 110:1095-1106) as described in each experiment. All primary antibodies and horseradish peroxidase conjugated secondary antibodies were used according to manufacturer's recommendations. Signals from immune complexes in the blots were developed using West Pico supersignal chemiluminescence reagents and then captured on X-ray films. Densitometric analysis of the images was performed using the NIH Image J software.

With `C[C@H](NC(c1cccc2[nH]c(=O)c(=O)[nH]c12)P(=O)(O)O)c1ccc(Br)cc1` (stereo partly drawn) [NVP-AAM077, ({[(1S)-1-(4-bromophenyl)ethyl]amino}-(2,3-dioxo-1,4-dihydroquinoxalin-5-yl)methyl)phosphonic acid], the “spontaneous usage of the affected forepaw” value in series [1] was determined as 40.51±1.86%. The “latency to fall from accelerated rotarod” value in series [2] was 112.51 ± 4.9 s.

On to `N[C@@H](CCS)C(=O)O` [L-homocysteine], for which the neuronal death result in series [3] (cultures from GluN2A KO mice) was “fails to induce neurotoxicity”; in series [3] (cultures from WT mice) it was “significantly increases neuronal death”. The cell death entry in series [3] (neurons from GluN2A-NMDAR knockout mice) is recorded as “fails to alter cell death”; in series [3] (neurons from WT mice), “significant increase in cell death”. The concentration at 3 day in series [4] (day 3, basal 8.8±0.76 μM, read-out: total plasma homocysteine level) was determined as 23.2 ± 0.52 µM. Besides, the concentration at 5 day in series [4] (day 5, read-out: total plasma homocysteine level) was 23.6 ± 0.57 µM. The concentration at 7 day in series [4] (day 7, read-out: total plasma homocysteine level) was 20.5 ± 0.88 µM. In the series on IκB, the “cellular level of IκB” value is reported as “significant decrease in the cellular level of IκB”.

(Values after patent US11541065B2, “Compositions and methods for treating brain injury” (UNM RAINFOREST INNOVATIONS, priority 2018, dated 2023).)
